Reference: patent publication US8163909B2, “Substituted hydroxyethyl amine compounds as beta-secretase modulators and methods of use” (Amgen Inc., priority 2007, dated 2012)

Assays:
[1] = target: CYP3A4 (CYP3A) (Homo sapiens, UniProt P08684); experiment: in vitro; details: microsomes, pH 7.4;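 further: inhibition of CYP3A-mediated 1-hydroxymidazolam formation after 10 min incubation with NADPH, quantified by HPLC MS relative to metabolite produced without test compound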
[2] = Microsomal stability assay, rat liver microsomes; details: rat liver microsomal data;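 further: rat liver microsomes (0.25 mg/mL) with about 1 µM compound plus 1 mM NADPH, pH 7.4, 37 °C for 30 min, parent left measured by LC-MS/MS against 0 min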
[3] = system: Aβ40 in conditioned medium of cells stably expressing Amyloid Precursor Protein (APP); experiment: In vitro BACE cell-based assay (Aβ40 in conditioned medium, sandwich ELISA); details: Homo sapiens, HEK293, HEK cells; read-out: HEK cell assay;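 further: compounds added as a dilution series, secreted peptide quantified by europium time-resolved fluorescence readout, potency fitted from percent of control versus compound concentration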
[4] = target: Beta Secretase enzyme (BACE) (Homo sapiens, UniProt P56817); experiment: In vitro enzymatic BACE FRET (fluorescence resonance energy transfer) assay; assay type: biochemical; details: BACE enzyme assay; read-out: BACE1 FRET assay;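 further: fluorescence read after 1 h with 50 nM quenched peptide substrate spanning the BACE cleavage site, in pH 4.2 acetate buffer containing 10% DMSO and nonionic detergent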
[5] = Microsomal stability assay, human liver microsomes; details: human liver microsomal data;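 further: pooled human liver microsomes at 0.25 mg/mL with 1 µM compound and NADPH at 37 °C, pH 7.4, for 30 min, unchanged parent quantified by LC-MS/MS against the 0 min sample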
[6] = target: CYP2D6 (Homo sapiens, UniProt P10635); experiment: CYP2D6 inhibition assay (bufuralol, pooled human liver microsomes); details: 2D6 IC50 (uM), CYP enzyme inhibition
Chain of CYP2D6 (P10635 whole entry): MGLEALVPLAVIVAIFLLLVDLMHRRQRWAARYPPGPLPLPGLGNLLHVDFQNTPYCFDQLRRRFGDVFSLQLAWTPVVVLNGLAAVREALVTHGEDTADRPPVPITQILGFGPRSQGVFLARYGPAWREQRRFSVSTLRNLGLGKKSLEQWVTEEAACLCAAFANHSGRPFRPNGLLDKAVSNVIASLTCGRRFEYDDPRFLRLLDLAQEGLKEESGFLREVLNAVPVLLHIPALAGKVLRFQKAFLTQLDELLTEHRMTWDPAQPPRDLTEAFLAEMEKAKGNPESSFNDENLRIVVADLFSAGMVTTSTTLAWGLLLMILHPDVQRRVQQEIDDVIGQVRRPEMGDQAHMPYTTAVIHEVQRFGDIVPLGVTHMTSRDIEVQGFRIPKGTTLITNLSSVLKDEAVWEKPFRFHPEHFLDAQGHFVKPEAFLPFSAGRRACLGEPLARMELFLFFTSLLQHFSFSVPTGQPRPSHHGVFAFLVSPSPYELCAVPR

Chain of CYP3A4 (CYP3A) (P08684 2-503): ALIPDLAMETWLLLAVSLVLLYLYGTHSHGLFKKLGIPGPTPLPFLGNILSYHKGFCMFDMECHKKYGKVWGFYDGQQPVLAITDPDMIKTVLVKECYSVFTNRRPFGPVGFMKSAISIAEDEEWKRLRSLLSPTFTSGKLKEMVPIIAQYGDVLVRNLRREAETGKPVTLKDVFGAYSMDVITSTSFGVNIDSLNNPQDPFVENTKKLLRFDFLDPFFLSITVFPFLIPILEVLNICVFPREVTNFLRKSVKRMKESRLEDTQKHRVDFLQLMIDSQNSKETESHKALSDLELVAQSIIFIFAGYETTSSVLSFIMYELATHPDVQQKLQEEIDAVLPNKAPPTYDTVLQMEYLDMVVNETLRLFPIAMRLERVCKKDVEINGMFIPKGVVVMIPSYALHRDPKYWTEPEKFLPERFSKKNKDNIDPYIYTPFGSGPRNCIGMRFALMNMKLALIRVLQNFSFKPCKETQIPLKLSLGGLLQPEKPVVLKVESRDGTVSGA
Chain of Beta Secretase enzyme (BACE) (P56817 46-501): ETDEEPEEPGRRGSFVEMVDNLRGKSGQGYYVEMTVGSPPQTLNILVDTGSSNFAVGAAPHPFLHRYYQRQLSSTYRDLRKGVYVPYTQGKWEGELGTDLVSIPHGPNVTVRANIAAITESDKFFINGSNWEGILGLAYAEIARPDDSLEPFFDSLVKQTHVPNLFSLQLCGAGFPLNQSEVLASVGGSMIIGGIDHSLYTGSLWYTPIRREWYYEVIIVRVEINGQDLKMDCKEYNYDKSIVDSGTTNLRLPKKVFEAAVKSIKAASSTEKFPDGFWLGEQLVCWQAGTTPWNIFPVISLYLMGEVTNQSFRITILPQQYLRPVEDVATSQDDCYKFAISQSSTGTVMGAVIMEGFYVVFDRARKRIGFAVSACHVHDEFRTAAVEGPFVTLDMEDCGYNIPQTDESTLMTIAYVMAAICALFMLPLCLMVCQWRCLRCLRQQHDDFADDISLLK

SMILES	IC50 [1]	RLM [2]	IC50 [3]	IC50 [4]	HLM [5]	IC50 [6]
CC(C)(C)Cc1cnc2c(c1)[C@@H](NC[C@@H](O)[C@H](Cc1ccc3c(c1)OCO3)NC(=O)C1CCO1)CC1(CCC1)O2 (stereo partly drawn) [compound 503, N-((1S,2R)-1-(1,3-benzodioxol-5-ylmethyl)-3-(((4′S)-6′-(2,2-dimethylpropyl)-3′,4′-dihydrospiro[cyclobutane-1,2′-pyrano[2,3-b]pyridin]-4′-yl)amino)-2-hydroxypropyl)-2-oxetanecarboxamide]	200 nM	130 µL/min/mg	17 nM	21 nM	23 µL/min/mg	3.3 µM
COCC(=O)N[C@@H](Cc1cccc(F)c1)[C@H](O)CN[C@H]1CC2(CCC2)Oc2c1cc(CC(C)(C)C)cc2-n1ccnc1 [compound 505]	100 nM	153 µL/min/mg	6 nM	19 nM	51.5 µL/min/mg	1.9 µM
CO[C@H](C)C(=O)N[C@@H](Cc1cccc(F)c1)[C@H](O)CN[C@H]1CC2(CCC2)Oc2c1cc(CC(C)(C)C)nc2-n1ccnc1 [compound 507]	100 nM	95 µL/min/mg	57 nM	22 nM	14 µL/min/mg	1.9 µM
COCC(=O)N[C@@H](Cc1cc(F)cc(F)c1)[C@H](O)CN[C@H]1CC2(CCC2)Oc2c1cc(CC(C)(C)C)nc2-c1cnc[nH]1 [compound 508]	100 nM	43 µL/min/mg	5 nM	24 nM	17 µL/min/mg	1.2 µM
COCC(=O)N[C@@H](Cc1cc(F)cc(F)c1)[C@H](O)CN[C@@H]1CC2(CCC2)Oc2c1cc(CC(C)(C)C)nc2-c1cnc[nH]1 [compound 509]	100 nM	70 µL/min/mg	77 nM	487 nM	74 µL/min/mg	2.3 µM
CC(=O)N[C@@H](Cc1cc(F)cc(F)c1)[C@H](O)CN[C@H]1CC2(CCC2)Oc2c1cc(CC(C)(C)C)nc2-c1cscn1 [compound 510]	1100 nM	358 µL/min/mg	17 nM	8 nM	380 µL/min/mg	10.3 µM
CO[C@H](C)C(=O)N[C@@H](Cc1cc(F)cc(F)c1)[C@H](O)CN[C@H]1CC2(CCC2)Oc2ncc(CC(C)(C)C#N)cc21 [compound 511]	2400 nM	203 µL/min/mg	11 nM	7 nM	382 µL/min/mg	14.5 µM
COCC(=O)N[C@@H](Cc1cccc(F)c1)[C@H](O)CN[C@H]1CC2(CCC2)Oc2ccc(C[C@H](C)F)cc21 [compound 512]	5700 nM	829 µL/min/mg	61 nM	28 nM	614 µL/min/mg	0.5 µM
COCC(=O)N[C@@H](Cc1ccc(F)cc1)[C@H](O)CN[C@H]1CC2(CCC2)Oc2c(-c3cnc[nH]3)cc(CC(C)C)cc21 [compound 513]	200 nM	82 µL/min/mg	13 nM	88 nM	143 µL/min/mg	2.5 µM
COCC(=O)N[C@@H](Cc1cccc(F)c1)[C@H](O)CN[C@H]1CC2(CCC2)Oc2c(Br)cc(CC(C)C)cc21 [compound 514]	1500 nM	560 µL/min/mg	128 nM	3 nM	682 µL/min/mg	6 µM
CO[C@H](C)C(=O)N[C@@H](Cc1cccc(F)c1)[C@H](O)CN[C@H]1CC2(CCC2)Oc2c(Br)cc(CC(C)C)cc21 [compound 515]	1300 nM	399 µL/min/mg	125 nM	3 nM	775 µL/min/mg	9.4 µM
CC(=O)N[C@@H](Cc1ccc2c(c1)OCO2)[C@H](O)CN[C@H]1CC2(CCC2)Oc2ncc(CC(F)(F)F)cc21 [compound 517]	500 nM	51 µL/min/mg	202 nM	178 nM	32 µL/min/mg	7.8 µM
COCC(=O)N[C@@H](Cc1ccc2c(c1)OCO2)[C@H](O)CN[C@H]1CC2(CCC2)Oc2ncc(CC(F)(F)F)cc21 [compound 518]	300 nM	82 µL/min/mg	340 nM	131 nM	26 µL/min/mg	2.7 µM
CO[C@H](C)C(=O)N[C@@H](Cc1ccc2c(c1)OCO2)[C@H](O)CN[C@H]1CC2(CCC2)Oc2ncc(CC(F)(F)F)cc21 [compound 519]	300 nM	71 µL/min/mg	810 nM	255 nM	33 µL/min/mg	7.4 µM
COCC(=O)N[C@@H](Cc1cccc(F)c1)[C@H](O)CN[C@H]1CC2(CCC2)Oc2c1cc(CC(C)C)cc2-n1ccnc1 [compound 520]	100 nM	144 µL/min/mg	9 nM	18 nM	32 µL/min/mg	0.9 µM
CO[C@H](C)C(=O)N[C@@H](Cc1cccc(F)c1)[C@H](O)CN[C@H]1CC2(CCC2)Oc2c1cc(CC(C)(C)C)cc2-n1ccnc1 [compound 522]	100 nM	141 µL/min/mg	13 nM	44 nM	43 µL/min/mg	3.1 µM
CO[C@H](C)C(=O)N[C@@H](Cc1cccc(F)c1)[C@H](O)CN[C@H]1CC2(CCC2)Oc2c(-c3cscn3)cc(CC(C)C)cc21 [compound 524]	500 nM	472 µL/min/mg	65 nM	8 nM	492 µL/min/mg	7.5 µM
CC(C)(C)Cc1cnc2c(c1)[C@@H](NC[C@@H](O)[C@H](Cc1ccc3c(c1)OCO3)NC(=O)[C@@H]1CCO1)CC1(CCC1)O2 [compound 525]	200 nM	101 µL/min/mg	19 nM	21 nM	32 µL/min/mg	3.1 µM
COCC(=O)N[C@@H](Cc1cccc(F)c1)[C@H](O)CN[C@H]1CC2(CCC2)Oc2c(-c3cscn3)cc(CC(C)C)cc21 [compound 526]	600 nM	503 µL/min/mg	53 nM	6 nM	351 µL/min/mg	7.3 µM
CO[C@H](C)C(=O)N[C@@H](Cc1ccc(F)cc1)[C@H](O)CN[C@H]1CC2(CCC2)Oc2c1cc(CC(C)(C)C)nc2-c1ccncc1 [compound 527]	100 nM	108 µL/min/mg	1950 nM	222 nM	33 µL/min/mg	0.6 µM
COCC(=O)N[C@@H](Cc1cccc(F)c1)[C@H](O)CN[C@H]1CC2(CCC2)Oc2c1cc(CC(C)(C)C)nc2-c1ccncc1 [compound 531]	200 nM	159 µL/min/mg	29 nM	13 nM	40 µL/min/mg	1.3 µM
CC(=O)N[C@@H](Cc1cccc(F)c1)[C@H](O)CN[C@H]1CC2(CCC2)Oc2c1cc(CC(C)(C)C)nc2-c1ccncc1 [compound 532]	200 nM	91 µL/min/mg	22 nM	12 nM	40 µL/min/mg	2.6 µM
CO[C@H](C)C(=O)N[C@@H](Cc1ccncc1)[C@H](O)CN[C@H]1CC2(CCC2)Oc2ncc(CC(C)(C)C)cc21 [compound 534]	500 nM	113 µL/min/mg	14 nM	23 nM	178 µL/min/mg	3.6 µM
CO[C@H](C)C(=O)N[C@@H](Cc1ccc2c(c1)OCO2)[C@H](O)CN[C@@H]1c2cc(CC(C)(C)C)cnc2OC2(CCC2)[C@H]1F [compound 539]	100 nM	161 µL/min/mg	147 nM	4770 nM	61 µL/min/mg	6.5 µM
CC(C)(C)Cc1cnc2c(c1)[C@@H](NC[C@@H](O)[C@H](Cc1ccc(F)cc1)NC=O)CC1(CCC1)O2 [compound 540]	1200 nM	347 µL/min/mg	74 nM	14 nM	264 µL/min/mg	2.3 µM
CO[C@H](C)C(=O)N[C@@H](Cc1ccccc1)[C@H](O)CN[C@H]1CC2(CCC2)Oc2c1cc(CC(C)(C)C)nc2-c1ccncc1 [compound 543]	100 nM	242 µL/min/mg	255 nM	37 nM	41 µL/min/mg	2.6 µM
COCC(=O)N[C@@H](Cc1ccccc1)[C@H](O)CN[C@H]1CC2(CCC2)Oc2c(Br)cc(CC(C)C)cc21 [compound 544]	1800 nM	662 µL/min/mg	937 nM	5 nM	399 µL/min/mg	7 µM
CO[C@H](C)C(=O)N[C@@H](Cc1ccccc1)[C@H](O)CN[C@H]1CC2(CCC2)Oc2c(Br)cc(CC(C)C)cc21 [compound 545]	1100 nM	775 µL/min/mg	1480 nM	7 nM	775 µL/min/mg	8.2 µM
COCC(=O)N[C@@H](Cc1ccccc1)[C@H](O)CN[C@H]1CC2(CCC2)Oc2c1cc(CC(C)C)cc2-n1ccnc1 [compound 546]	100 nM	267 µL/min/mg	33 nM	25 nM	75 µL/min/mg	3.8 µM
